Measurements reported in US7208290B2, “Methods of co-expressing umami taste receptors and chimeric Gα15 variants” (Senomyx, Inc., priority 2002, dated 2007).

Target: T1, rat T1R1/T1R3 umami taste receptor (Rattus norvegicus, UniProt Q9Z0R8)
T1 construct: expressed in transfected cells; host or cells: HEK-293 cells, transient transfection, pEAK10 expression vector
T1 sequence (Q9Z0R8 20-840): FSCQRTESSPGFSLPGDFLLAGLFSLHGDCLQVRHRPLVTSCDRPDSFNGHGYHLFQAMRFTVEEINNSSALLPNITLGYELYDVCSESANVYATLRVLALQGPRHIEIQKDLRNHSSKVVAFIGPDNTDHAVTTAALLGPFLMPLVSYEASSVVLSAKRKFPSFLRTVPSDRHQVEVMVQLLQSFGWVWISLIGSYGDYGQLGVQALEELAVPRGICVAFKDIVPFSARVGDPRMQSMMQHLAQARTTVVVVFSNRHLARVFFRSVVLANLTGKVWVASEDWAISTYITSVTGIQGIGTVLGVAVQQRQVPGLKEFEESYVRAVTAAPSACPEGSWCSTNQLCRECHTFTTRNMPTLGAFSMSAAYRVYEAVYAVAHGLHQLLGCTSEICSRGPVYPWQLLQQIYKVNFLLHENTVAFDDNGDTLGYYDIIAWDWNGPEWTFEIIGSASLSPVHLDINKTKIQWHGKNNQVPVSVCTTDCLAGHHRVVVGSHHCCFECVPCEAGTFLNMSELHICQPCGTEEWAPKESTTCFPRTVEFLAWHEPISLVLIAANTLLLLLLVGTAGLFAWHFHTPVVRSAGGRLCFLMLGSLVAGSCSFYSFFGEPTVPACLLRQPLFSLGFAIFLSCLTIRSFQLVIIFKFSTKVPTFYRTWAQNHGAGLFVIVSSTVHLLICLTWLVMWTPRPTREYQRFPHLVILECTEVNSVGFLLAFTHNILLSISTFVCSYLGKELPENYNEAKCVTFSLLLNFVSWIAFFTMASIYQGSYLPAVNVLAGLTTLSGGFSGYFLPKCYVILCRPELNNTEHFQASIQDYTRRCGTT
T1 sequence (Q923K1 21-858 partner): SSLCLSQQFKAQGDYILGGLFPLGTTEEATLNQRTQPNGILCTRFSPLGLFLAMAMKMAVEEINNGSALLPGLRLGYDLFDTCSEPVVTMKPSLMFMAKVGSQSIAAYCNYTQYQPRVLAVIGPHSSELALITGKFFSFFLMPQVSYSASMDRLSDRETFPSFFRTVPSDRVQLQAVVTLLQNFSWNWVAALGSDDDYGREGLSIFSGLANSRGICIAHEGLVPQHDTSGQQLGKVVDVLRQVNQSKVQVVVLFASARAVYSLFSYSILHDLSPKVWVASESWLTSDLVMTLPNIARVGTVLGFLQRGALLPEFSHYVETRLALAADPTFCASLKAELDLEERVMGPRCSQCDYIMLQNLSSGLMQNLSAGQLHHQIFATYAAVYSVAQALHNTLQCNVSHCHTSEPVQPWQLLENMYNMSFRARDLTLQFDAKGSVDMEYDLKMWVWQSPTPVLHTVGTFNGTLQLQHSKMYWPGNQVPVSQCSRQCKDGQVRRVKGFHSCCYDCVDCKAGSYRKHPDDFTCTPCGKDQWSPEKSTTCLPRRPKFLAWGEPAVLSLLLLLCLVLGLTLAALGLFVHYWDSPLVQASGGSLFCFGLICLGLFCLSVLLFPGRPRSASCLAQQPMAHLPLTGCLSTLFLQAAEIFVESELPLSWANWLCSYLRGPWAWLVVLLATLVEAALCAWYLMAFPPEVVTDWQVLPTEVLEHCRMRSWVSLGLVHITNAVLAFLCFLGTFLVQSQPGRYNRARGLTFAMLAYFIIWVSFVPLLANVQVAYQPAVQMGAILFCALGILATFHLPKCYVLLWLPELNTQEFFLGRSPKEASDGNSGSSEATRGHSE
Test: calcium imaging in HEK-293 cells transiently transfected with rat T1R1, T1R3 and Gα15 or Gα15/i1
Type: cell-based
Details: HEK-293 transiently transfected with rat T1R1, T1R3 and Gα15/i1; in the presence of 2.5 mM IMP
Experimental: Rat T1R2 and T1R3 expression constructs were generated using the pEAK10 expression vector (Edge Biosystems). (Rat T1R1, T1R2, and T1R3 nucleic acid sequences are described in U.S. Provisional Application No. 60/339,472, incorporated by reference in its entirety herein). HEK-293 cells were grown and maintained at 37° C. in Dulbecco's Modified Eagle Medium (DMEM) supplemented with 10% FBS and MEM non-essential amino acids (Gibco BRL). For calcium-imaging experiments, cells were first seeded onto 24-well tissue-culture plates (approximately 100,000 cells per well), and transfected using Mirus Translt-293 (PanVera). Transfection efficiencies, which were estimated by cotransfection with an RFP expression vector, were typically approximately 70%. […] Calcium mobilization was monitored on an Axiovert S100 microscope equipped with an inverted 10×/0.5 LWD piano fluor objective (Zeiss) and a cooled CCD camera (Princeton Instruments). Fluorescence images were acquired at 480 nm excitation and 535 nm emission, and analyzed with Imaging Workbench 4.0 software (Axon Instruments). T1R receptor activity was quantitated by counting the number of responding cells 30 seconds after stimulus addition. […]

Compound | response of cells (intracellular calcium increase, number of responding cells) to umami taste stimuli
N[C@@H](CC(=O)O)C(=O)O [L-aspartate] | responded
N[C@@H](CCC(=O)O)C(=O)O [L-glutamate] | responded
